From article PMC10221074, “Functional Profiling of the A-Family of Venom Peptides from the Wolf Spider Lycosa shansia” (Toxins, 2023)

Legend:
[1] = test system: B/Malaysia/2506/2004 (B-Mal); format: cell-based, influenza virus
[2] = test system: A/Hamburg/05/2009 (H1N1); format: cell-based, influenza virus
[3] = test system: A/Hessen/1/2003 (H3N2); format: cell-based, influenza virus
[4] = test system: panel of seven bacterial strains; test: Antibacterial growth assay (OD600), statements on the whole panel; format: cell-based; settings: growth after 48 h
[5] = test system: Pseudomonas aeruginosa DSM 1117; test: Antibacterial growth assay (OD600); settings: for Bacterial growth relative to medium, P. aeruginosa (1117), replicate 1 / Bacterial growth relative to medium, P. aeruginosa (1117), replicate 2 / Bacterial growth relative to medium, P. aeruginosa (1117), replicate 3: OD600, medium = 100, MH II broth, 37 °C, peptide 200 µM mixed 50 µL + 50 µL with bacteria, Figure 7: 48 h; for Bacterial growth relative to medium, P. aeruginosa (1117), replicate 1: replicate column 1; for Bacterial growth relative to medium, P. aeruginosa (1117), replicate 2: replicate column 2; for Bacterial growth relative to medium, P. aeruginosa (1117), replicate 3: replicate column 3; for Antibacterial activity (in words): P. aeruginosa DSM 1117, growth after 48 h
Procedure: (§1) Cryo-conserved cultures of selected bacterial strains (Table 4) were transferred to Tryptic Soy Agar (TSA) plates (Carl Roth) with a sterile inoculation loop, sealed with Parafilm (BEMIS, Neenah, WI, USA), and incubated for 1–2 days at 37 °C depending on growth. Single colonies were picked and transferred into 2–3 mL of the Mueller–Hinton II (MH II) broth (BD, Heidelberg, Germany). The bacteria were cultivated overnight, subcultured on fresh medium and grown for 3–4 h before testing at 37 °C, with shaking at 180 rpm. We measured the optical density at 600 nm (OD600) of 1 mL of the bacterial suspensions in polystyrene cuvettes (SARSTED, Nümbrecht, Germany) using an Ultrospec 10 spectrophotometer (Biochrome, Cambridge, UK). We then diluted them with the MH II medium to the preferred OD600 (Table 2). The peptides were dissolved in DMSO to generate 10 mmol/L stocks and diluted with the MH II medium to 200 µM before the assay. We used 10 µg/mL (~40 µg/mL for S. epidermidis) gentamicin and colistin (Sigma-Aldrich, Taufkirchen, Germany), DMSO and the medium only as controls. The bacteria were transferred to 96-multiwell plates with a final volume of 100 µL per well (50 µL bacterial suspension, and 50 µL test peptide). The OD600 was measured at 0, 24 and 48 h using a BioTek Eon microplate reader followed by analysis with Gen5 v2.09.

[6] = test system: Pseudomonas aeruginosa DSM 50071; test: Antibacterial growth assay (OD600); settings: for Bacterial growth relative to medium, P. aeruginosa (50071), replicate 1 / Bacterial growth relative to medium, P. aeruginosa (50071), replicate 2 / Bacterial growth relative to medium, P. aeruginosa (50071), replicate 3: OD600, medium = 100, MH II broth, 37 °C, peptide 200 µM mixed 50 µL + 50 µL with bacteria, Figure 7: 48 h; for Bacterial growth relative to medium, P. aeruginosa (50071), replicate 1: replicate column 1; for Bacterial growth relative to medium, P. aeruginosa (50071), replicate 2: replicate column 2; for Bacterial growth relative to medium, P. aeruginosa (50071), replicate 3: replicate column 3
Procedure: as §1

[7] = test system: Micrococcus luteus DSM 20030; test: Antibacterial growth assay (OD600); settings: OD600, medium = 100, MH II broth, 37 °C, peptide 200 µM mixed 50 µL + 50 µL with bacteria, Figure 7: 48 h; for Bacterial growth relative to medium, M. luteus, replicate 1: replicate column 1; for Bacterial growth relative to medium, M. luteus, replicate 2: replicate column 2; for Bacterial growth relative to medium, M. luteus, replicate 3: replicate column 3
[8] = test system: Staphylococcus aureus DSM 2569; test: Antibacterial growth assay (OD600); settings: OD600, medium = 100, MH II broth, 37 °C, peptide 200 µM mixed 50 µL + 50 µL with bacteria, Figure 7: 48 h; for Bacterial growth relative to medium, S. aureus, replicate 1: replicate column 1; for Bacterial growth relative to medium, S. aureus, replicate 2: replicate column 2; for Bacterial growth relative to medium, S. aureus, replicate 3: replicate column 3
Procedure: as §1

[9] = test system: Escherichia coli BL21(DE3); test: Antibacterial growth assay (OD600); settings: OD600, medium = 100, MH II broth, 37 °C, peptide 200 µM mixed 50 µL + 50 µL with bacteria, Figure 7: 48 h; for Bacterial growth relative to medium, E. coli, replicate 1: replicate column 1; for Bacterial growth relative to medium, E. coli, replicate 2: replicate column 2; for Bacterial growth relative to medium, E. coli, replicate 3: replicate column 3
Procedure: as §1

[10] = test system: Listeria monocytogenes DSM 20600; test: Antibacterial growth assay (OD600); settings: for Antibacterial activity (in words): L. monocytogenes DSM 20600, growth after 48 h; for Bacterial growth relative to medium, L. monocytogenes, replicate 1 / Bacterial growth relative to medium, L. monocytogenes, replicate 2 / Bacterial growth relative to medium, L. monocytogenes, replicate 3: OD600, medium = 100, MH II broth, 37 °C, peptide 200 µM mixed 50 µL + 50 µL with bacteria, Figure 7: 48 h; for Bacterial growth relative to medium, L. monocytogenes, replicate 1: replicate column 1; for Bacterial growth relative to medium, L. monocytogenes, replicate 2: replicate column 2; for Bacterial growth relative to medium, L. monocytogenes, replicate 3: replicate column 3
Procedure: as §1

[11] = test system: Staphylococcus epidermidis DSM 28319; test: Antibacterial growth assay (OD600); settings: OD600, medium = 100, MH II broth, 37 °C, peptide 200 µM mixed 50 µL + 50 µL with bacteria, Figure 7: 48 h; for Bacterial growth relative to medium, S. epidermidis, replicate 1: replicate column 1; for Bacterial growth relative to medium, S. epidermidis, replicate 2: replicate column 2; for Bacterial growth relative to medium, S. epidermidis, replicate 3: replicate column 3
Procedure: as §1

[12] = […], replicate 4 (additional internal control)

| Sequence | Viability of infected cells relative to aprotinin, Replicate 1 [1] | Viability of infected cells relative to aprotinin, Replicate 2 [1] | Viability of infected cells relative to aprotinin, Replicate 3 [1] | Viability of infected cells relative to aprotinin, Replicate 1 [2] | Viability of infected cells relative to aprotinin, Replicate 2 [2] | Viability of infected cells relative to aprotinin, Replicate 3 [2] | Viability of infected cells relative to aprotinin, Replicate 1 [3] | Viability of infected cells relative to aprotinin, Replicate 2 [3] | Viability of infected cells relative to aprotinin, Replicate 3 [3] | Bacterial growth relative to medium, P. aeruginosa (1117), replicate 1 [5] | Bacterial growth relative to medium, P. aeruginosa (1117), replicate 2 [5] | Bacterial growth relative to medium, P. aeruginosa (1117), replicate 3 [5] | Antibacterial activity (in words) [5] | Bacterial growth relative to medium, P. aeruginosa (50071), replicate 1 [6] | Bacterial growth relative to medium, P. aeruginosa (50071), replicate 2 [6] | Bacterial growth relative to medium, P. aeruginosa (50071), replicate 3 [6] | Bacterial growth relative to medium, M. luteus, replicate 1 [7] | Bacterial growth relative to medium, M. luteus, replicate 2 [7] | Bacterial growth relative to medium, M. luteus, replicate 3 [7] | Bacterial growth relative to medium, S. aureus, replicate 1 [8] | further results |
| --- | --- | --- | --- | --- | --- | --- | --- | --- | --- | --- | --- | --- | --- | --- | --- | --- | --- | --- | --- | --- | --- |
| SLFGLLDLVKNKVGQTGLL [LS-AMP-A2] | 0.03127 | 0.04494 | 0.06464 | 0.06714 | 0.03978 | 0.06798 | 0.05065 | 0.0432 | 0.03436 | 64.5445 | 72.5374 | 62.225 | less effective | 100.368 | 113.753 | 87.799 | 118.679 | 181.194 | 65.5667 | 88.0937 | Viability of infected cells relative to aprotinin, Replicate 4 [2, 12]: 0.02665; Viability of infected cells relative to aprotinin, Replicate 5 ([2]; […], replicate 5 (additional internal control)): 0.03333; Antibacterial activity over the panel (in words) [4]: limited activity; Bacterial growth relative to medium, S. aureus, replicate 2 [8]: 87.9986; Bacterial growth relative to medium, S. aureus, replicate 3 [8]: 104.003; Bacterial growth relative to medium, E. coli, replicate 1 [9]: 128.192; Bacterial growth relative to medium, E. coli, replicate 2 [9]: 150.174; Bacterial growth relative to medium, E. coli, replicate 3 [9]: 124.918; Antibacterial activity (in words) [10]: less effective; Bacterial growth relative to medium, L. monocytogenes, replicate 1 [10]: 66.982; Bacterial growth relative to medium, L. monocytogenes, replicate 2 [10]: 116.711; Bacterial growth relative to medium, L. monocytogenes, replicate 3 [10]: 86.9442; Bacterial growth relative to medium, S. epidermidis, replicate 1 [11]: 112.577; Bacterial growth relative to medium, S. epidermidis, replicate 2 [11]: 143.959; Bacterial growth relative to medium, S. epidermidis, replicate 3 [11]: 90.9149 |
| SLLGLLDVVKSKIGQTG [LS-AMP-A14] | 0.05534 | 0.06456 | 0.1102 | 0.03385 | 0.02545 | 0.02099 | 0.07143 | 0.146 | 0.0602 | 84.8429 | 62.4783 | 58.9547 | weak activity | 100.972 | 116.001 | 81.6852 | 101.208 | 114.302 | 44.4763 | 81.4506 | Viability of infected cells relative to aprotinin, Replicate 4 [3, 12]: 0.04395; Antibacterial activity (in words) ([6]; P. aeruginosa DSM 50071, growth after 48 h): weak activity; Bacterial growth relative to medium, S. aureus, replicate 2 [8]: 83.1916; Bacterial growth relative to medium, S. aureus, replicate 3 [8]: 66.5171; Bacterial growth relative to medium, E. coli, replicate 1 [9]: 109.705; Bacterial growth relative to medium, E. coli, replicate 2 [9]: 98.8412; Bacterial growth relative to medium, E. coli, replicate 3 [9]: 96.3776; Antibacterial activity (in words) [10]: more active; Bacterial growth relative to medium, L. monocytogenes, replicate 1 [10]: 102.734; Bacterial growth relative to medium, L. monocytogenes, replicate 2 [10]: 82.6703; Bacterial growth relative to medium, L. monocytogenes, replicate 3 [10]: 49.785; Bacterial growth relative to medium, S. epidermidis, replicate 1 [11]: 97.145; Bacterial growth relative to medium, S. epidermidis, replicate 2 [11]: 104.641; Bacterial growth relative to medium, S. epidermidis, replicate 3 [11]: 74.4979 |
